Literature values in US7332520B2, “Fused indoles as dipeptidyl peptidase inhibitors for the treatment or prevention of diabetes” (Merck & Co., Inc., priority 2003, dated 2008).

Assays:
[1] = system: hematopoiesis; conditions: mouse, cyclophosphamide-induced neutropenia
[2] = target: T1, DP-IV (Homo sapiens, UniProt P27487)
T1 construct: GRF is rapidly degraded in plasma to GRF[3-44]
T1 sequence (P27487 39-766 limits assumed): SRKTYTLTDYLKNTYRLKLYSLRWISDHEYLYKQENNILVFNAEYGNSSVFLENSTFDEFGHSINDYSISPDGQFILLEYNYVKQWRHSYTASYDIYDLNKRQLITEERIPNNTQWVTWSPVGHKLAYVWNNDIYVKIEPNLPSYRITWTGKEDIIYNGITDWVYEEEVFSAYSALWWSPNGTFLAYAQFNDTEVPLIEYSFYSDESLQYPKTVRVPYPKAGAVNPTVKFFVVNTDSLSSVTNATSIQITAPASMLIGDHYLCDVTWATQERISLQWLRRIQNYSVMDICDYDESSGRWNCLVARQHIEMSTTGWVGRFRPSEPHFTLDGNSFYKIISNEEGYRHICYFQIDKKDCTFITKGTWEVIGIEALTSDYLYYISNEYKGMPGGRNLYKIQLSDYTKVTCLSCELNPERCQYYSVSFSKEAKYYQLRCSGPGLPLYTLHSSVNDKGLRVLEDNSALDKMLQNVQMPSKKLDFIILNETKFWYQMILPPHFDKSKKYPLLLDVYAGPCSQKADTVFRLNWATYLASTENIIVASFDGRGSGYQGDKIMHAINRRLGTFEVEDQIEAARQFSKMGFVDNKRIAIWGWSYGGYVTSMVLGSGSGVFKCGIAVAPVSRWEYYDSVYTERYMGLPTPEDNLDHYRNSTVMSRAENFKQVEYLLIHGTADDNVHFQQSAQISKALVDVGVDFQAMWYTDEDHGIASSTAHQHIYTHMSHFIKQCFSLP

SMILES	hematopoiesis [1]	degradation of GRF in plasma to GRF[3-44] [2]
CC(C)[C@H](N)C(=O)N1CCC[C@H]1B(O)O [Val-Boro-Pro]	stimulated hematopoiesis	–
CC[C@H](C)[C@H](N)C(=O)N1CCC[C@H]1C(=O)N[C@H](C(=O)O)[C@@H](C)CC [diprotin A]	–	prevented
